# Reference: PubChem BioAssay (NCI)
#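 Compound exposure: 48 hours, 5 concentrations, 96-well plates. At the GI50, growth is halved. TGI is the concentration that stops growth completely.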
# Assays:
# Assay in all cases: NCI anticancer screen, dose series, 48 h
# [1] = system: DU-145 prostate
# [2] = system: OVCAR-3 ovarian
# [3] = system: HL-60(TB) leukemia
# [4] = system: HCT-116 colon
# [5] = system: UO-31 renal
# [6] = system: HCT-15 colon
# [7] = system: SW-620 colon
# [8] = system: HS 578T breast
# [9] = system: COLO 205 colon
# [10] = system: NCI-H226 lung
# [11] = system: OVCAR-5 ovarian
# [12] = system: CAKI-1 renal
# [13] = system: MDA-MB-435
# [14] = system: SK-MEL-28 melanoma
# [15] = system: SF-268 CNS
# [16] = system: KM12 colon
# [17] = system: UACC-62 melanoma
# [18] = system: SNB-19 CNS
# [19] = system: MALME-3M melanoma
# [20] = system: SR leukemia
# [21] = system: U251 CNS
# [22] = system: A498 renal
# [23] = system: SNB-75 CNS
# [24] = system: NCI-H460 lung
# [25] = system: LOX IMVI melanoma
# [26] = system: SK-OV-3 ovarian
# [27] = system: OVCAR-4 ovarian
# [28] = system: K-562 leukemia
structure (smiles),measurement,setting,value
O=C1Nc2cc(OC(F)(F)F)ccc2Oc2ccc(-c3ccnc(N4CC[C@H](O)C4)c3)cc21,GI50,[1],44.6 nM
same,TGI,[1],4.38 µM
same,GI50,[2],< 11.7 nM
same,TGI,[2],1330 nM
same,GI50,[3],< 10 nM
same,TGI,[3],105 nM
same,GI50,[4],< 10 nM
same,TGI,[4],1190 nM
same,GI50,[5],57 nM
same,TGI,[5],5.63 µM
same,GI50,[6],10.3 nM
same,TGI,[6],2860 nM
same,GI50,[7],< 17.7 nM
same,TGI,[7],1660 nM
same,GI50,[8],23.9 nM
same,TGI,[8],5.59 µM
same,GI50,[9],18.1 nM
same,TGI,[9],51.3 nM
same,GI50,[10],280 nM
same,TGI,[10],5.54 µM
same,GI50,[11],49.2 nM
same,TGI,[11],6.37 µM
same,GI50,[12],< 10 nM
same,TGI,[12],9.64 µM
same,GI50,[13],< 10 nM
same,TGI,[13],< 11.6 nM
same,GI50,[14],1200 nM
same,TGI,[14],2600 nM
same,GI50,[15],485 nM
same,TGI,[15],15.8 µM
same,GI50,[16],< 15.2 nM
same,TGI,[16],2470 nM
same,GI50,[17],< 17.3 nM
same,TGI,[17],5.24 µM
same,GI50,[18],36.6 nM
same,TGI,[18],5.74 µM
same,GI50,[19],48.9 nM
same,TGI,[19],2090 nM
same,GI50,[20],< 10 nM
same,TGI,[20],2210 nM
same,GI50,[21],35.8 nM
same,TGI,[21],1850 nM
same,GI50,[22],10.6 µM
same,TGI,[22],25.9 µM
same,GI50,[23],< 16.3 nM
same,TGI,[23],1120 nM
same,GI50,[24],< 12.9 nM
same,TGI,[24],1060 nM
same,GI50,[25],32 nM
same,TGI,[25],1490 nM
same,GI50,[26],36.7 nM
same,TGI,[26],14.7 µM
same,GI50,[27],1120 nM
same,TGI,[27],3000 nM
same,GI50,[28],< 10 nM
same,TGI,[28],1730 nM
